Measurements reported in ChEMBL document CHEMBL2163275, “The lipogenesis pathway as a cancer target” (J Med Chem, 2011).

Legend:
ATP-citrate synthase [1] = biological target: T1, ATP-citrate synthase (Rattus norvegicus, UniProt P16638); assay: Inhibition of rat liver ACLY by fluorimetric analysis
T1 sequence (P16638 whole entry): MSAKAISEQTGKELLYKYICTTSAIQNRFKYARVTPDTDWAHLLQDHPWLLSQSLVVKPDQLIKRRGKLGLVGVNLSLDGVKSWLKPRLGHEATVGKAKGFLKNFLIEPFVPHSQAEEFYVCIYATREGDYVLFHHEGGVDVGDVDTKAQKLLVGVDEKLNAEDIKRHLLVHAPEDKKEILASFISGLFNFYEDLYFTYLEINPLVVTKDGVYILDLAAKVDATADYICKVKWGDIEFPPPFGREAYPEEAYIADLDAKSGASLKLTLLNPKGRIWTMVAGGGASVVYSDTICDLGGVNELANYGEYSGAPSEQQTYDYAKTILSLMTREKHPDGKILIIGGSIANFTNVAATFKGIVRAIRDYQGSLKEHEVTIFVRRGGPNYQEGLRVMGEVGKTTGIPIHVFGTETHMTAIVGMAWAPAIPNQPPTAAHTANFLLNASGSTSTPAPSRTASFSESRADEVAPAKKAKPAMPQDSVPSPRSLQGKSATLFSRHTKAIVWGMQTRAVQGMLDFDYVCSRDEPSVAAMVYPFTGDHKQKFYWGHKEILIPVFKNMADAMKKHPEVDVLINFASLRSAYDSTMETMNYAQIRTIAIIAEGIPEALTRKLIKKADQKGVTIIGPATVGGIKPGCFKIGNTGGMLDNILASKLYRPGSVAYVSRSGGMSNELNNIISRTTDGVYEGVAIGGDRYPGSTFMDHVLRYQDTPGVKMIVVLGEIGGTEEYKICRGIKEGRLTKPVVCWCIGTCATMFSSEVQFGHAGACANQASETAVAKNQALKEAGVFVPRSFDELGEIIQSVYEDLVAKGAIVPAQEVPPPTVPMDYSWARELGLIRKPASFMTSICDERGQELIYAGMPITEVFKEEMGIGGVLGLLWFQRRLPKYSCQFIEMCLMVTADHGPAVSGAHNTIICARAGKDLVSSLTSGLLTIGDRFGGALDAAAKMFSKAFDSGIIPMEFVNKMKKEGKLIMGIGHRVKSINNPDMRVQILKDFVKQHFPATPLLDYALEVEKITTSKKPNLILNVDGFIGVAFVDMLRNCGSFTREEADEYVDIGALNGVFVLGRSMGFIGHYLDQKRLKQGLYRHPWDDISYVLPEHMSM

ATP-citrate synthase [2] = biological target: T1, ATP-citrate synthase
[3] = Inhibition of rat liver ACC
[4] = Competitive inhibition of Escherichia coli ACC carboxyltransferase activity using malonyl coA as substrate
Escherichia coli = assay: Ratio of biotin Ki to compound Ki for Escherichia coli ACC
MDA-MB-435 [5] = assay: Cytotoxicity against human MDA-MB-435 cells; assay type: functional, cell-based
MDA-MB-435 [6] = assay: Selectivity ratio of IC50 for human MCF10A to IC50 for human MDA-MB-435 cells
Fatty acid synthase [7] = biological target: T2, Fatty acid synthase (Homo sapiens, UniProt P49327); assay: Antagonist activity at human recombinant FASN thioesterase domain by fluorogenic assay; assay type: functional
Target sequence in this assay (P49327 whole entry, the tested form may be a part): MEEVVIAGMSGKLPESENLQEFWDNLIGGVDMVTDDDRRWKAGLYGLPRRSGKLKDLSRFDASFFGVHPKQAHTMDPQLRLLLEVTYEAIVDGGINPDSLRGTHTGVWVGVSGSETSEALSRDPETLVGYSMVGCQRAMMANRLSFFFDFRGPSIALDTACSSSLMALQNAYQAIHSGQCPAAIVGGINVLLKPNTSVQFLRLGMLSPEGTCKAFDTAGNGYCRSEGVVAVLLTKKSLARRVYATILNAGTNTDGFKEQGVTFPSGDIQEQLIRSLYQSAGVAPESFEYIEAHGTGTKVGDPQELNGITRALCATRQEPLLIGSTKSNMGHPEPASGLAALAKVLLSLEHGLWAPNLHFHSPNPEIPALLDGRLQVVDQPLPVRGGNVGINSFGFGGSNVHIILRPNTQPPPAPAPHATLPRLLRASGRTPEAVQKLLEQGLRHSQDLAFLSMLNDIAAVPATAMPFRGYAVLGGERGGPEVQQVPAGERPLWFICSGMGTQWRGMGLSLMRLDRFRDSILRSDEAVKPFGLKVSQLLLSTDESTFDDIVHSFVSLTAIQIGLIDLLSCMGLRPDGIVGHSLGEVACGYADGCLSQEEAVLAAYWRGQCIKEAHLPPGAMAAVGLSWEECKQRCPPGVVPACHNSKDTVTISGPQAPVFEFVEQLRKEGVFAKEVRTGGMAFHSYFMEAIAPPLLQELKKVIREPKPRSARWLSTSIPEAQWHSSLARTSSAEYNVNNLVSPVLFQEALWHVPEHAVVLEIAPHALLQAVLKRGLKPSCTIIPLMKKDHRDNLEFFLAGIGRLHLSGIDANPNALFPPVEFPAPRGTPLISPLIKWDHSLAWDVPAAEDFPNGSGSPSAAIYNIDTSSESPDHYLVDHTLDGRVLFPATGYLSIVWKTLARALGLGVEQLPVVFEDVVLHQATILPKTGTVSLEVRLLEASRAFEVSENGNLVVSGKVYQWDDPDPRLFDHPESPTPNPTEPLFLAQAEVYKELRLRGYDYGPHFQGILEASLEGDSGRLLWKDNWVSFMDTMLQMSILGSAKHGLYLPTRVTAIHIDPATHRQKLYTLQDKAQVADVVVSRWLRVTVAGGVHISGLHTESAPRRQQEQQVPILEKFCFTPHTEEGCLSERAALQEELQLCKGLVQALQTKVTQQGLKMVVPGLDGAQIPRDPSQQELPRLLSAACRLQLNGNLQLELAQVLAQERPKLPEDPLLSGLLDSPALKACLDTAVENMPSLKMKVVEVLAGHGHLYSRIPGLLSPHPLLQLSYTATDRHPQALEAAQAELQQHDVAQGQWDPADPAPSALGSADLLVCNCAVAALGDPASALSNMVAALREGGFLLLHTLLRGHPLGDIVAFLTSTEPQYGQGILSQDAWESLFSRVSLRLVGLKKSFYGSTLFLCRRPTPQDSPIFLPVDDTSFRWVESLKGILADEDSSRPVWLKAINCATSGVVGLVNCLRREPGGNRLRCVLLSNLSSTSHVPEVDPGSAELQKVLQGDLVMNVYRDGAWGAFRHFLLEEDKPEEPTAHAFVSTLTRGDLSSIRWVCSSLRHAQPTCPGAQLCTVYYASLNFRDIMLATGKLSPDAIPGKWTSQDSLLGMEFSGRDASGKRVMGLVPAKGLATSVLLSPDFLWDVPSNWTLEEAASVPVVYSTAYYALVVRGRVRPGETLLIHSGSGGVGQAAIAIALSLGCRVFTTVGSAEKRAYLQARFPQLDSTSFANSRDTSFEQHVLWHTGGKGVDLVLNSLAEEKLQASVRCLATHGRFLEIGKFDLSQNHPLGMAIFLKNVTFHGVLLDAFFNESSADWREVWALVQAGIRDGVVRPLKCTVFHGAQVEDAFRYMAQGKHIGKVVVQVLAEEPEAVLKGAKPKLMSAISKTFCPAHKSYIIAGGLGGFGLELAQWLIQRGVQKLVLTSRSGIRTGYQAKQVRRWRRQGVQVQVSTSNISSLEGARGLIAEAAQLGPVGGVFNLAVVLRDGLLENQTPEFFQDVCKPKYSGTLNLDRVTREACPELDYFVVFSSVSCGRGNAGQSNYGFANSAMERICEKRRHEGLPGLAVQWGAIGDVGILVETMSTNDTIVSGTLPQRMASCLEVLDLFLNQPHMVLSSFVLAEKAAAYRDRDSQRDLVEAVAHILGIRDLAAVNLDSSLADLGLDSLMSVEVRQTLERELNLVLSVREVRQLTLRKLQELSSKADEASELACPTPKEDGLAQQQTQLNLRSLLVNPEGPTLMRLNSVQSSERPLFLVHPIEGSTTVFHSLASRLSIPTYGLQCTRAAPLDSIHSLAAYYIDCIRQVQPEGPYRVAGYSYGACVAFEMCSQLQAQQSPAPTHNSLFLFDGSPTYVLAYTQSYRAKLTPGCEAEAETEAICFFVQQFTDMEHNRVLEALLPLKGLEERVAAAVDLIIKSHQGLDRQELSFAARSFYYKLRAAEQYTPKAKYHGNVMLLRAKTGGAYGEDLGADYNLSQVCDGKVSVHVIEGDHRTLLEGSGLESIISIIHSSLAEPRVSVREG

[8] = Inhibition of rat liver ACC using acetyl coA as substrate and [14C]NaHCO3 incubated for 30 mins prior to substrate addition by liquid scintillation counting
Fatty acid synthase [9] = biological target: T2, Fatty acid synthase; assay: Inhibition of FASN in human HepG2 cells; assay type: cell-based
Target sequence in this assay (P49327 whole entry, the tested form may be a part): as above

Fatty acid synthase [10] = biological target: T2, Fatty acid synthase; details: SK-BR-3, 22.4 uM
Target sequence in this assay (P49327 whole entry, looked up, the tested form may be a part): as the sequence (P49327 whole entry, the tested form may be a part) above
Description: Inhibition of FASN in human SKBR3 cells at 22.4 uM

Fatty acid synthase [11] = biological target: T2, Fatty acid synthase; details: SK-BR-3, 179 uM
Target sequence in this assay (P49327 whole entry, looked up, the tested form may be a part): as the sequence (P49327 whole entry, the tested form may be a part) above
Description: Inhibition of FASN in human SKBR3 cells at 179 uM

Fatty acid synthase [12] = biological target: T2, Fatty acid synthase; assay: Inhibition of FASN in human SKBR3 cells at 21 uM after 3 mins by spectrophotometric analysis relative to control; assay type: cell-based; details: SK-BR-3
Target sequence in this assay (P49327 whole entry, looked up, the tested form may be a part): as the sequence (P49327 whole entry, the tested form may be a part) above

Fatty acid synthase [13] = biological target: T2, Fatty acid synthase; assay: Inhibition of FASN in human SKBR3 cells at 29 uM after 3 mins by spectrophotometric analysis relative to control; assay type: cell-based; details: SK-BR-3
Target sequence in this assay (P49327 whole entry, looked up, the tested form may be a part): as the sequence (P49327 whole entry, the tested form may be a part) above

ATP-citrate synthase [14] = biological target: T3, ATP-citrate synthase (Homo sapiens, UniProt P53396); assay: Inhibition of human recombinant ACLY
T3 sequence (P53396 whole entry): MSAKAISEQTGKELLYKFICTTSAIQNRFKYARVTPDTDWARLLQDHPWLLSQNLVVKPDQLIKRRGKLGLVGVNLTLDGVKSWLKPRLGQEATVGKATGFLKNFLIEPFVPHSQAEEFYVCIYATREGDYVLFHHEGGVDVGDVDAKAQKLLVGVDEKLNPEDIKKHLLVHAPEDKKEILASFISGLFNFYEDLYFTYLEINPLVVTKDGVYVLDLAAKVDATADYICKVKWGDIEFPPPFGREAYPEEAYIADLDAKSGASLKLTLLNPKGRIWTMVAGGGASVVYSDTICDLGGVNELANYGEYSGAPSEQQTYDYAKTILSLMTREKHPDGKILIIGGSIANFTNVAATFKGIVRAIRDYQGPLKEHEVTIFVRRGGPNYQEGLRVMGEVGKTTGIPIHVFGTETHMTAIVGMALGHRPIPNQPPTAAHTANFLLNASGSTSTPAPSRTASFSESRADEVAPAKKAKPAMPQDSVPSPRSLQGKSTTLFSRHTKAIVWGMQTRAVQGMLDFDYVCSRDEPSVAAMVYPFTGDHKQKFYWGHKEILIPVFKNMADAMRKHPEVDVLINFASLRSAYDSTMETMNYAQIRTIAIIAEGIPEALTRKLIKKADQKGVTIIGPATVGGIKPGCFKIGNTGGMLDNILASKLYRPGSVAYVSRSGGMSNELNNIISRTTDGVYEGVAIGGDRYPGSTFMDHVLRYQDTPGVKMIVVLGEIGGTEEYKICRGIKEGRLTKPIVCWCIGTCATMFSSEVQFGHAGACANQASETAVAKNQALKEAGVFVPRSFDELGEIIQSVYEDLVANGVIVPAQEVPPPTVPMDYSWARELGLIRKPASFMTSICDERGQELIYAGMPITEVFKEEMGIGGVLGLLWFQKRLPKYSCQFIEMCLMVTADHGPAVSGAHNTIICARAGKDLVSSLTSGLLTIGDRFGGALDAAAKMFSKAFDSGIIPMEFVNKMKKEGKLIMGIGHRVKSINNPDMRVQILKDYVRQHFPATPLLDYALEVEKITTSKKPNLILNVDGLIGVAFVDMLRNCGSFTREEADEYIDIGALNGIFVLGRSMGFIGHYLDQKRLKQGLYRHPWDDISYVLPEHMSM

Fatty acid synthase [15] = biological target: T2, Fatty acid synthase; assay: Inhibition of FASN in human A375 cells; assay type: cell-based, A-375
Target sequence in this assay (P49327 whole entry, the tested form may be a part): as the sequence (P49327 whole entry, the tested form may be a part) above

Fatty acid synthase [16] = biological target: T2, Fatty acid synthase; assay: Inhibition of human recombinant FASN thioesterase domain
Target sequence in this assay (P49327 whole entry, the tested form may be a part): as the sequence (P49327 whole entry, the tested form may be a part) above

Fatty acid synthase [17] = biological target: Fatty acid synthase (Gallus gallus, UniProt P12276); assay: Inhibition of chicken liver FASN ketoreductase activity

Compound: O=C(O)C[C@@](O)(C(=O)O)[C@H](O)C(=O)O
- Ki (ATP-citrate synthase [1]): 8 µM

Compound: O=C(O)C[C@@]1(C(=O)O)O[C@H]1C(=O)O
- Ki (ATP-citrate synthase [2]): 18 µM

Compound: O=C1C[C@@](O)(C(=O)O)[C@@H](C(=O)O)O1
- Ki (ATP-citrate synthase [1]): 50 µM

Compound: Cc1cc(O)c2c(c1)Cc1cc(O)c(Cl)c(O)c1C2=O
- IC50 (ATP-citrate synthase [2]): 0.283 µM

Compound: CC(C)(C)c1ccc(N2C[C@@H](COc3ccc(C(=O)SCCNC(=O)CCNC(=O)[C@H](O)C(C)(C)COP(=O)(O)OP(=O)(O)OC[C@H]4O[C@@H](n5cnc6c(N)ncnc65)[C@H](O)[C@@H]4OP(=O)(O)O)cc3)CC2=O)cc1
- Ki [3]: 69.2 µM

Compound: CC(C)(COP(=O)(O)OP(=O)(O)OC[C@H]1O[C@@H](n2cnc3c(N)ncnc32)[C@H](O)[C@@H]1OP(=O)(O)O)[C@H](O)C(=O)NCCC(=O)NCCSC(=O)CC(=O)N1C(=O)N[C@@H]2[C@H](CCCCC(=O)OCc3ccccc3)SC[C@@H]21
- Ki [4]: 23 µM
- Ratio Ki (Escherichia coli): 350

Compound: Cc1c(-c2cc3ccccc3o2)oc(=O)c(C)c1O
- Ki [3]: 3.3 µM

Compound: Cc1cc(C)cc(N2C(=O)NC(=O)/C(=C\c3ccc(-c4ccccc4)o3)C2=O)c1
- IC50 (MDA-MB-435 [5]): 3.47 µM
- Ratio IC50 (MDA-MB-435 [6]): 2
- Ki (Fatty acid synthase [7]): 0.38 µM

Compound: CC(C)(CCCCCC(O)CCCCCC(C)(C)C(=O)SCCNC(=O)CCNC(=O)[C@H](O)C(C)(C)COP(=O)(O)OP(=O)(O)OC[C@H]1O[C@@H](n2cnc3c(N)ncnc32)[C@H](O)[C@@H]1OP(=O)(O)O)C(=O)O (stereo partly specified)
- IC50 [8]: 29 µM

Compound: C=C/C(C)=C/[C@]1(C)SC(=O)C(C)=C1O
- IC50 (Fatty acid synthase [9]): 208 µM

Compound: C=C/C(C)=C/[C@]1(C)SC(=O)C=C1O
- IC50 (Fatty acid synthase [9]): 96.8 µM

Compound: CCCCC/C=C\C/C=C\C/C=C\CCCCC(=O)O
- inhibition (Fatty acid synthase [10]): 41%
- inhibition (Fatty acid synthase [11]): 78%

Compound: O=C(Oc1cc(OC(=O)c2cc(O)c(O)c(O)c2)c2ccccc2c1)c1cc(O)c(O)c(O)c1
- inhibition (Fatty acid synthase [12]): 90%

Compound: O=C(Oc1ccc(OC(=O)c2cc(O)c(O)c(O)c2)c2ccccc12)c1cc(O)c(O)c(O)c1
- inhibition (Fatty acid synthase [13]): 69%

Compound: O=C(O)C[C@](O)(C[C@@H](O)CCCCCC1c2ccccc2-c2cc(Cl)ccc21)C(=O)O (mixture of isomers)
- Ki (ATP-citrate synthase [14]): 0.22 µM

Compound: O=C(O)[C@H](O)[C@](O)(C[C@@H](O)CCCCCCc1ccc(Cl)cc1Cl)C(=O)O (racemic)
- Ki (ATP-citrate synthase [14]): 0.62 µM

Compound: Cc1cn(-c2cc(Cl)ccc2CCCCCC[C@H](O)C[C@@](O)(CC(=O)O)C(=O)O)cc1C (racemic)
- Ki (ATP-citrate synthase [14]): 0.3 µM

Compound: O=C(O)C[C@](O)(C[C@@H](O)CCCCCn1c(-c2ccccc2)cc2cc(Cl)ccc21)C(=O)O (racemic)
- Ki (ATP-citrate synthase [14]): 0.37 µM

Compound: O=C(O)C[C@](O)(C[C@@H](O)CCCCCn1c2ccccc2c2cc(Cl)ccc21)C(=O)O (racemic)
- Ki (ATP-citrate synthase [14]): 0.71 µM

Compound: C=C1C(=O)O[C@H](CCCCCCCC)[C@H]1C(=O)O (relative stereo)
- IC50 (Fatty acid synthase [15]): 32.4 µM
- IC50 (Fatty acid synthase [16]): 59 µM
- IC50 (Fatty acid synthase [17]): 80 µM
